Source: PubChem BioAssay (NCI)
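Tested at 5 concentrations; 48 h exposure; 96-well plates; endpoints linearly interpolated, else capped at highest concentration. TGI: concentration producing complete growth inhibition.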

Assays:
Test in all cases: NCI-60 cell line screen, 48 h
[1] = system: 786-0 renal
[2] = system: A498 renal
[3] = system: A549 NSCLC
[4] = system: ACHN renal
[5] = system: BT-549 breast
[6] = system: CAKI-1 renal
[7] = system: CCRF-CEM leukemia
[8] = system: COLO 205 colon
[9] = system: DU-145 prostate
[10] = system: EKVX NSCLC
[11] = system: HCT-116 colon
[12] = system: HCT-15 colon
[13] = system: HL-60(TB) leukemia
[14] = system: HOP-62 NSCLC
[15] = system: HOP-92 NSCLC
[16] = system: HS 578T breast
[17] = system: HT29 colon
[18] = system: IGROV1 ovarian
[19] = system: K-562 leukemia
[20] = system: KM12 colon
[21] = system: LOX IMVI melanoma
[22] = system: M14 melanoma
[23] = system: MALME-3M melanoma
[24] = system: MCF7 breast
[25] = system: MDA-MB-231 breast
[26] = system: MDA-MB-435
[27] = system: MDA-N
[28] = system: MOLT-4 leukemia
[29] = system: NCI-H226 lung
[30] = system: NCI-H23 lung
[31] = system: NCI-H522 lung
[32] = system: NCI/ADR-RES ovarian
[33] = system: OVCAR-3 ovarian
[34] = system: OVCAR-4 ovarian
[35] = system: OVCAR-5 ovarian
[36] = system: OVCAR-8 ovarian
[37] = system: PC-3 prostate
[38] = system: RPMI-8226 leukemia
[39] = system: RXF 393 renal
[40] = system: SF-268 CNS
[41] = system: SF-295 CNS
[42] = system: SF-539 CNS
[43] = system: SK-MEL-2 melanoma
[44] = system: SK-MEL-28 melanoma
[45] = system: SK-MEL-5 melanoma
[46] = system: SN12C renal
[47] = system: SNB-19 CNS
[48] = system: SW-620 colon
[49] = system: T-47D breast
[50] = system: TK-10 renal
[51] = system: U251 CNS
[52] = system: UACC-257 melanoma
[53] = system: UACC-62 melanoma
[54] = system: UO-31 renal
[55] = system: HCC-2998 colon
[56] = system: NCI-H460 lung
[57] = system: SK-OV-3 ovarian
[58] = system: SNB-75 CNS
[59] = system: SR leukemia

Question: Which results are given for `CC(=O)O[C@H]1CC[C@@H](OC(C)=O)[C@H]2[C@H](O)[C@H](O)[C@@H]1n1c(=O)n(-c3ccccc3)c(=O)n12`?
Answer: TGI [1]: > 100 µM; TGI [2]: > 100 µM; TGI [3]: > 100 µM; TGI [4]: > 100 µM; TGI [5]: > 100 µM; TGI [6]: > 100 µM; TGI [7]: > 100 µM; TGI [8]: > 100 µM; TGI [9]: > 100 µM; TGI [10]: > 100 µM; TGI [11]: > 100 µM; TGI [12]: > 100 µM; TGI [13]: > 100 µM; TGI [14]: > 100 µM; TGI [15]: > 100 µM; TGI [16]: > 100 µM; TGI [17]: > 100 µM; TGI [18]: > 100 µM; TGI [19]: > 100 µM; TGI [20]: > 100 µM; TGI [21]: > 100 µM; TGI [22]: > 100 µM; TGI [23]: > 100 µM; TGI [24]: > 100 µM; TGI [25]: > 100 µM; TGI [26]: > 100 µM; TGI [27]: > 100 µM; TGI [28]: > 100 µM; TGI [29]: > 100 µM; TGI [30]: > 100 µM; TGI [31]: > 100 µM; TGI [32]: > 100 µM; TGI [33]: > 100 µM; TGI [34]: > 100 µM; TGI [35]: > 100 µM; TGI [36]: > 100 µM; TGI [37]: > 100 µM; TGI [38]: > 100 µM; TGI [39]: > 100 µM; TGI [40]: > 100 µM; TGI [41]: > 100 µM; TGI [42]: > 100 µM; TGI [43]: > 100 µM; TGI [44]: > 100 µM; TGI [45]: > 100 µM; TGI [46]: > 100 µM; TGI [47]: > 100 µM; TGI [48]: > 100 µM; TGI [49]: > 100 µM; TGI [50]: > 100 µM; TGI [51]: > 100 µM; TGI [52]: > 100 µM; TGI [53]: > 100 µM; TGI [54]: > 100 µM

Question: Which TGI [2] does the source give for `O=C(N/N=C/c1ccccc1)c1c(F)c(F)c(F)c(F)c1F` here?
Answer: > 100 µM

Question: And the TGI [3]?
Answer: > 100 µM

Question: And the TGI [4]?
Answer: > 100 µM

Question: What about the TGI [5] of the same compound?
Answer: > 100 µM

Question: What about the TGI [6] of the same compound?
Answer: > 100 µM

Question: What about the TGI [7] of the same compound?
Answer: > 100 µM

Question: And the TGI [8]?
Answer: > 100 µM

Question: And the TGI [9]?
Answer: > 100 µM

Question: And the TGI [10]?
Answer: > 100 µM

Question: What about the TGI [55] of the same compound?
Answer: > 100 µM

Question: What about the TGI [11] of the same compound?
Answer: > 100 µM

Question: What about the TGI [12] of the same compound?
Answer: > 100 µM

Question: And the TGI [13]?
Answer: > 100 µM

Question: And the TGI [14]?
Answer: > 100 µM

Question: And the TGI [15]?
Answer: > 100 µM

Question: What about the TGI [16] of the same compound?
Answer: > 100 µM

Question: And the TGI [17]?
Answer: > 100 µM

Question: And the TGI [18]?
Answer: > 100 µM

Question: What about the TGI [19] of the same compound?
Answer: > 100 µM

Question: And the TGI [20]?
Answer: > 100 µM

Question: And the TGI [21]?
Answer: > 100 µM

Question: And the TGI [22]?
Answer: > 100 µM

Question: And the TGI [23]?
Answer: > 100 µM

Question: What about the TGI [25] of the same compound?
Answer: > 100 µM

Question: And the TGI [26]?
Answer: > 100 µM

Question: What about the TGI [27] of the same compound?
Answer: > 100 µM

Question: What about the TGI [28] of the same compound?
Answer: > 100 µM

Question: And the TGI [29]?
Answer: > 100 µM

Question: And the TGI [30]?
Answer: > 100 µM

Question: And the TGI [56]?
Answer: > 100 µM

Question: What about the TGI [31] of the same compound?
Answer: 49.2 µM

Question: And the TGI [32]?
Answer: > 100 µM

Question: What about the TGI [33] of the same compound?
Answer: > 100 µM

Question: What about the TGI [34] of the same compound?
Answer: > 100 µM

Question: What about the TGI [35] of the same compound?
Answer: > 100 µM

Question: And the TGI [36]?
Answer: > 100 µM

Question: And the TGI [37]?
Answer: > 100 µM

Question: What about the TGI [38] of the same compound?
Answer: > 100 µM

Question: And the TGI [39]?
Answer: > 100 µM

Question: And the TGI [40]?
Answer: > 100 µM

Question: What about the TGI [41] of the same compound?
Answer: > 100 µM

Question: And the TGI [42]?
Answer: > 100 µM

Question: What about the TGI [43] of the same compound?
Answer: > 100 µM

Question: And the TGI [44]?
Answer: > 100 µM

Question: What about the TGI [45] of the same compound?
Answer: > 100 µM

Question: What about the TGI [57] of the same compound?
Answer: > 100 µM

Question: And the TGI [46]?
Answer: > 100 µM

Question: And the TGI [47]?
Answer: > 100 µM

Question: And the TGI [58]?
Answer: > 100 µM

Question: And the TGI [59]?
Answer: > 100 µM

Question: What about the TGI [48] of the same compound?
Answer: > 100 µM

Question: And the TGI [49]?
Answer: > 100 µM

Question: And the TGI [50]?
Answer: > 100 µM

Question: What about the TGI [51] of the same compound?
Answer: > 100 µM

Question: And the TGI [52]?
Answer: > 100 µM

Question: What about the TGI [53] of the same compound?
Answer: > 100 µM

Question: What about the TGI [54] of the same compound?
Answer: > 100 µM
